Test results: patent US11680085B2, “Cyclic peptides for protection against respiratory syncytial virus” (VIROMETIX AG, priority 2017, dated 2023)

Tested on: RSV A/Tracy
Experiment: Micro-Neutralization Test (MNT)
Assay type: cell-based, respiratory syncytial virus
Conditions: 40 μg/ml mAb in test solution
Experimental: In order to assess the neutralization capacity of the mAb at 40 μg/ml against RSV A/Tracy a Micro-Neutralization Test (MNT) was performed. A 40 μg/ml Palivizumab stock was taken as positive control and 40 μg/ml stock of an isotype-matched mAb as negative control (Table 10).

With Palivizumab the “RSV A, Tracy MN titer (log2)” value was 5.0 log2.
